In the supplement of paper PMC10307832:

How the values were obtained:
Assay in all cases: relative viability (nuclei count vs DMSO), 5 days (fraction); higher = more cells survive
[1] = tested on: NCI-H2087
Procedure, shortened: (§1)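 Relative viability is defined as nuclei in treated wells over nuclei in vehicle wells. Duplicate plates were run and medians reported. Lung cancer cell lines in 1536-well plates were dosed by pin tool one day after seeding, with one drug or with a fixed anchor-drug dose plus five library-drug doses (not always all listed) in √10 steps, and nuclei were counted after 5 days.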

[2] = tested on: LOU-NH91
Procedure, shortened: as §1

[3] = tested on: HCC-827
Procedure, shortened: as §1

[4] = tested on: NCI-H661
Procedure, shortened: as §1

[5] = tested on: NCI-H2009
Procedure, shortened: as §1

[6] = tested on: NCI-H1355
Procedure, shortened: as §1

[7] = tested on: NCI-H2405
Procedure, shortened: as §1

[8] = tested on: LC-2-ad
Procedure, shortened: as §1

[9] = tested on: NCI-H647
Procedure, shortened: as §1

[10] = tested on: NCI-H1437
Procedure, shortened: as §1

[11] = tested on: BEN
Procedure, shortened: as §1

[12] = tested on: NCI-H2170
Procedure, shortened: as §1

[13] = tested on: SK-MES-1
Procedure, shortened: as §1

[14] = tested on: EKVX
Procedure, shortened: as §1

[15] = tested on: NCI-H1395
Procedure, shortened: as §1

[16] = tested on: SK-LU-1
Procedure, shortened: as §1

[17] = tested on: NCI-H2228
Procedure, shortened: as §1

[18] = tested on: NCI-H596
Procedure, shortened: as §1

[19] = tested on: HCC-366
Procedure, shortened: as §1

[20] = tested on: NCI-H1734
Procedure, shortened: as §1

[21] = tested on: HARA
Procedure, shortened: as §1

[22] = tested on: NCI-H1792
Procedure, shortened: as §1

SMILES: CC1(C)CCC(c2ccc(Cl)cc2)=C(CN2CCN(c3ccc(C(=O)NS(=O)(=O)c4ccc(N[C@H](CCN5CCOCC5)CSc5ccccc5)c(S(=O)(=O)C(F)(F)F)c4)cc3)CC2)C1 [Navitoclax] + Cc1nc(NC(=O)N2CCC[C@H]2C(N)=O)sc1-c1ccnc(C(C)(C)C(F)(F)F)c1 [Alpelisib] (partner 2 µM)
- relative viability ([1]; first compound 0.005 µM): 1.25
- relative viability ([1]; first compound 0.01581 µM): 1.17
- relative viability ([1]; first compound 0.05 µM): 1.03
- relative viability ([1]; first compound 0.1581 µM): 1.05
- relative viability ([1]; first compound 0.5 µM): 1.08
- relative viability ([2]; first compound 0.005 µM): 0.729
- relative viability ([2]; first compound 0.01581 µM): 0.809
- relative viability ([2]; first compound 0.05 µM): 0.69
- relative viability ([2]; first compound 0.1581 µM): 0.769
- relative viability ([2]; first compound 0.5 µM): 0.645
- relative viability ([3]; first compound 0.005 µM): 1.07
- relative viability ([3]; first compound 0.01581 µM): 1.1
- relative viability ([3]; first compound 0.05 µM): 0.766
- relative viability ([3]; first compound 0.1581 µM): 1.02
- relative viability ([3]; first compound 0.5 µM): 1.01
- relative viability ([4]; first compound 0.005 µM): 0.438
- relative viability ([4]; first compound 0.01581 µM): 0.468
- relative viability ([4]; first compound 0.05 µM): 0.479
- relative viability ([4]; first compound 0.1581 µM): 0.465
- relative viability ([4]; first compound 0.5 µM): 0.673
- relative viability ([5]; first compound 0.005 µM): 1.08
- relative viability ([5]; first compound 0.01581 µM): 1.16
- relative viability ([5]; first compound 0.05 µM): 1.15
- relative viability ([5]; first compound 0.1581 µM): 1.2
- relative viability ([5]; first compound 0.5 µM): 1.21
- relative viability ([6]; first compound 0.005 µM): 0.833
- relative viability ([6]; first compound 0.01581 µM): 0.934
- relative viability ([6]; first compound 0.05 µM): 0.846
- relative viability ([6]; first compound 0.1581 µM): 0.74
- relative viability ([6]; first compound 0.5 µM): 0.782
- relative viability ([7]; first compound 0.005 µM): 0.762
- relative viability ([7]; first compound 0.01581 µM): 0.896
- relative viability ([7]; first compound 0.05 µM): 0.954
- relative viability ([7]; first compound 0.1581 µM): 0.83
- relative viability ([7]; first compound 0.5 µM): 0.834
- relative viability ([8]; first compound 0.005 µM): 0.972
- relative viability ([8]; first compound 0.01581 µM): 0.948
- relative viability ([8]; first compound 0.05 µM): 0.901
- relative viability ([8]; first compound 0.1581 µM): 0.946
- relative viability ([8]; first compound 0.5 µM): 0.904
- relative viability ([9]; first compound 0.005 µM): 1.04
- relative viability ([9]; first compound 0.01581 µM): 1.35
- relative viability ([9]; first compound 0.05 µM): 1.48
- relative viability ([9]; first compound 0.1581 µM): 1.14
- relative viability ([9]; first compound 0.5 µM): 0.75
- relative viability ([10]; first compound 0.005 µM): 0.885
- relative viability ([10]; first compound 0.01581 µM): 1.04
- relative viability ([10]; first compound 0.05 µM): 0.98
- relative viability ([10]; first compound 0.1581 µM): 1.05
- relative viability ([10]; first compound 0.5 µM): 0.871
- relative viability ([11]; first compound 0.005 µM): 0.983
- relative viability ([11]; first compound 0.01581 µM): 1.13
- relative viability ([11]; first compound 0.05 µM): 1.02
- relative viability ([11]; first compound 0.1581 µM): 1.08
- relative viability ([11]; first compound 0.5 µM): 0.831
- relative viability ([12]; first compound 0.005 µM): 0.785
- relative viability ([12]; first compound 0.01581 µM): 0.872
- relative viability ([12]; first compound 0.05 µM): 0.927
- relative viability ([12]; first compound 0.1581 µM): 0.8
- relative viability ([12]; first compound 0.5 µM): 0.583
- relative viability ([13]; first compound 0.005 µM): 0.761
- relative viability ([13]; first compound 0.01581 µM): 1.01
- relative viability ([13]; first compound 0.05 µM): 0.922
- relative viability ([13]; first compound 0.1581 µM): 0.827
- relative viability ([13]; first compound 0.5 µM): 1.04
- relative viability ([14]; first compound 0.005 µM): 0.828
- relative viability ([14]; first compound 0.01581 µM): 1.15
- relative viability ([14]; first compound 0.05 µM): 0.765
- relative viability ([14]; first compound 0.1581 µM): 0.928
- relative viability ([14]; first compound 0.5 µM): 0.833
- relative viability ([15]; first compound 0.005 µM): 1.05
- relative viability ([15]; first compound 0.01581 µM): 1.26
- relative viability ([15]; first compound 0.05 µM): 1.2
- relative viability ([15]; first compound 0.1581 µM): 1.19
- relative viability ([15]; first compound 0.5 µM): 1.12
- relative viability ([16]; first compound 0.005 µM): 0.979
- relative viability ([16]; first compound 0.01581 µM): 1.12
- relative viability ([16]; first compound 0.05 µM): 1.23
- relative viability ([16]; first compound 0.1581 µM): 0.906
- relative viability ([16]; first compound 0.5 µM): 0.867
- relative viability ([17]; first compound 0.005 µM): 0.745
- relative viability ([17]; first compound 0.01581 µM): 0.725
- relative viability ([17]; first compound 0.05 µM): 0.602
- relative viability ([17]; first compound 0.1581 µM): 0.688
- relative viability ([17]; first compound 0.5 µM): 0.819
- relative viability ([18]; first compound 0.005 µM): 0.515
- relative viability ([18]; first compound 0.01581 µM): 0.481
- relative viability ([18]; first compound 0.05 µM): 0.399
- relative viability ([18]; first compound 0.1581 µM): 0.57
- relative viability ([18]; first compound 0.5 µM): 0.408
- relative viability ([19]; first compound 0.005 µM): 0.391
- relative viability ([19]; first compound 0.01581 µM): 0.588
- relative viability ([19]; first compound 0.05 µM): 0.132
- relative viability ([19]; first compound 0.1581 µM): 0.338
- relative viability ([19]; first compound 0.5 µM): 0.361
- relative viability ([20]; first compound 0.005 µM): 0.618
- relative viability ([20]; first compound 0.01581 µM): 0.779
- relative viability ([20]; first compound 0.1581 µM): 0.645
- relative viability ([20]; first compound 0.5 µM): 0.63
- relative viability ([21]; first compound 0.005 µM): 0.657
- relative viability ([21]; first compound 0.01581 µM): 1.05
- relative viability ([21]; first compound 0.05 µM): 0.622
- relative viability ([21]; first compound 0.1581 µM): 0.881
- relative viability ([21]; first compound 0.5 µM): 0.898
- relative viability ([22]; first compound 0.005 µM): 0.735
- relative viability ([22]; first compound 0.01581 µM): 0.878
- relative viability ([22]; first compound 0.05 µM): 0.534
- relative viability ([22]; first compound 0.1581 µM): 0.657
- relative viability ([22]; first compound 0.5 µM): 0.692
